According to PMC10218905, “Improving the Enzymatic Activity and Stability of a Lytic Polysaccharide Monooxygenase” (International Journal of Molecular Sciences, 2023):

Key:
Test in all cases: spectrophotometric oxidation assay at […] nm
Assay type in all cases: biochemical
Conditions in all cases: 100 µM H2O2 co-substrate, copper-loaded enzyme, 100 mM sodium acetate pH 6.0, 30 °C; read-out: Km app
BaLPMO10A [1] = biological target: T1, BaLPMO10A (Bacillus velezensis, UniProt A7Z541)
T1 construct: gene RBAM_017540; mature enzyme with native N-terminus; N-terminal SUMO tag cleaved, C-terminal 6xHis tag; pET-20b, E. coli BL21(DE3); copper-saturated

BaLPMO10A [2] = biological target: T2, BaLPMO10A (Bacillus velezensis, UniProt A7Z541, V67L/E151D, form not given)
T2 construct: gene RBAM_017540; mature enzyme with native N-terminus; N-terminal SUMO tag cleaved, C-terminal 6xHis tag; pET-20b, E. coli BL21(DE3); copper-saturated

BaLPMO10A [3] = biological target: T3, BaLPMO10A (Bacillus velezensis, UniProt A7Z541, V67L, form not given)
T3 construct: gene RBAM_017540; mature enzyme with native N-terminus; N-terminal SUMO tag cleaved, C-terminal 6xHis tag; pET-20b, E. coli BL21(DE3); copper-saturated

BaLPMO10A [4] = biological target: T4, BaLPMO10A (Bacillus velezensis, UniProt A7Z541, I31V/E151D, form not given)
T4 construct: gene RBAM_017540; mature enzyme with native N-terminus; N-terminal SUMO tag cleaved, C-terminal 6xHis tag; pET-20b, E. coli BL21(DE3); copper-saturated
T4 sequence (A7Z541 entry or part of it I31V/E151D, form open): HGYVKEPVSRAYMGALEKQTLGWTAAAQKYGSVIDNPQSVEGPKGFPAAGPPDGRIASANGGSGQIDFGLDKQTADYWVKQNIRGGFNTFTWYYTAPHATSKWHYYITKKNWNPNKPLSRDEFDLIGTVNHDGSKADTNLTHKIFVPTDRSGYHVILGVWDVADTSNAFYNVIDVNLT

T2 sequence (A7Z541 entry or part of it V67L/E151D, form open): as the sequence (A7Z541 entry or part of it I31V/E151D, form open) above, with V4I, V40L counted along it
T1 sequence (A7Z541 entry or part of it): as the sequence (A7Z541 entry or part of it I31V/E151D, form open) above, with V4I, D124E counted along it
T3 sequence (A7Z541 entry or part of it V67L, form open): as the sequence (A7Z541 entry or part of it I31V/E151D, form open) above, with V4I, V40L, D124E counted along it

**Q.** Which Km (BaLPMO10A [1]) does the source give for `COc1cccc(OC)c1O` [2,6-DMP, 2,6-Dimethoxyphenol] here?
**A.** The Km was 41.3 ± 7.33 mM.

**Q.** What about the Km (BaLPMO10A [2]) of the same compound?
**A.** The Km was 33.5 ± 1.6 mM.

**Q.** What about the Km (BaLPMO10A [3]) of the same compound?
**A.** The Km was 32.5 ± 3.6 mM.

**Q.** And the Km (BaLPMO10A [4])?
**A.** Its Km is 95.5 ± 9.5 mM.
